Measured values from ChEMBL document CHEMBL1152723, “Remarkable enhancement in the DNA-binding ability of C2-fluoro substituted pyrrolo[2,1-c][1,4]benzodiazepines and their anticancer potential” (2009).

Tested on: DNA
Assay: Binding affinity to calf thymus DNA assessed as change in melting temperature at a compound to DNA molar ratio of 1:5 at pH 7 by thermal denaturation assay
Assay type: nucleic-acid assay
Conditions: Bos taurus

ΔTm: 38 °C
SMILES: COc1cc2c(cc1OCCCCN1CCN(CCCCOc3cc4c(cc3OC)C(=O)N3CC(F)C[C@H]3C=N4)CC1)N=C[C@@H]1CC(F)CN1C2=O (stereo partly specified)
